Counter-ions that a name gives are not always drawn.
Experiment: In vivo metabolism and excretion of [14C]COMPOUND I in male beagle dogs, single oral 3 mg/kg dose
Parameters: species or system dog
Settings: 3 mg/kg oral; for Source: P, plasma, F, feces
Experimental: Dose preparation, animal dosing, and specimen collection were performed at Wyeth Research, Collegeville, Pa. The vehicle contained 2% (w/v) polysorbate 80, NF and 0.5% (w/v) methylcellulose (4000 cps) in water. [^14C]COMPOUND I trisuccinate salt (50.25 mg) and non-labeled COMPOUND I trisuccinate salt (331.9 mg) were suspended in 72 mL of the vehicle by grinding with a mortar and a pestle. The target [^14C]COMPOUND I concentration was approximately 3 mg/mL as free base and 48 μCi/mL with a target specific activity of 16 μCi/mg. Three pre- and post-dose aliquots (100 μL) were taken for the determination of radiochemical purity, drug and radioactivity concentrations and specific activity (see below).
Four male beagle dogs, weighing from 9.4 to 11.5 kg at the time of dosing, were from an in-house colony. Non-fasted dogs were given a single 3 mg/kg (approximately 48 μCi/kg) dose of [^14C]COMPOUND I at a volume of 1 mL/kg via intragastric gavage. Animals were provided Purina dog chow and water ad libitum, and were housed individually in metabolic cages.
Blood samples were collected from the jugular vein at 1, 4, 8, 24, 48, 72 and 120 hr after dose administration into tubes containing potassium EDTA as the anticoagulant and then placed on ice. Aliquots of 200 μL were removed and plasma was harvested immediately from the remaining blood by centrifugation at 4° C. Urine samples were collected into tubes on dry ice from 0-24 and 24-48 hr, and then at ambient temperature at 24 hr intervals for 7 days post-dose. Fecal samples were collected at 24 hr intervals for 7 days post-dose at room temperature. Cage rinses were collected daily by rinsing each cage with approximately 500 mL of 30% ethanol in water. The dose aliquots and biological specimens were stored at approximately −70° C. until analysis.
Triplicate aliquots of diluted dose (20 μL), dose fractions (10 μL) and plasma (50 μL), urine (200 μL) and cage wash (500 μL) from individual dogs were analyzed for radioactivity content. The samples were assayed in a Tri-Carb Model 3100TR liquid scintillation counter (Perkin Elmer) using 5 mL of Ultima Gold scintillation cocktail.
Fecal samples from individual dogs were weighed and homogenized in water at a volume-to-weight ratio of about 4:1 with a Silverson sealed-unit homogenizer at ambient temperature. Triplicate aliquots of whole blood (50 μL) and fecal homogenates (approximately 0.2 g) were placed into Combusto-cones with Combusto-pads and allowed to dry overnight. Samples were combusted with a model 307 Tri-Carb Sample Oxidizer, equipped with an Oximate-80 Robotic Automatic Sampler (Perkin Elmer). The liberated ^14CO2 was trapped with Carbo-Sorb® E carbon dioxide absorber, mixed with PermaFluor® E+liquid scintillation cocktail, and counted in a Tri-Carb Model 3100 TR/LL liquid scintillation counter.
Plasma samples were pooled by mixing equal volumes from four animals at each time point (1, 4, 8 and 24 hr). Aliquots of 2.0 mL of pooled plasma were mixed with 2.0 mL of acetonitrile, placed on ice for about 10 min, and then centrifuged at 4° C. The supernatant was transferred to a clean tube. The protein pellets were extracted two more times with 2.0 mL of acetonitrile. The supernatants from precipitation and extraction of each sample were pooled, mixed, and evaporated at 22° C. under nitrogen in a TurboVap LV evaporator (Caliper Life Sciences, Hopkinton, Mass.) to about 0.8 mL. The concentrated extract was centrifuged, the supernatant volume measured and the extraction efficiency was determined by analyzing duplicate 10 μL aliquots for radioactivity concentrations. For metabolite profiling, an aliquot of the supernatant (200 μL) was injected onto the HPLC column as described hereinbelow, and fractions were collected at 20 second intervals into 96-well Lumaplates (Perkin Elmer).

Row | Source | percent of total fecal radioactivity (pooled 0-24 hr fecal sample) | percent of total fecal radioactivity (pooled 24-48 hr fecal sample) | percent of total plasma radioactivity (pooled plasma, over 24 hr post-dose) | Structure (SMILES)
1 | P, F | 1.2% | 6.7% | 71-78% | COc1cc(N2CCN(C3CCN(c4ccc(F)c5cccnc45)CC3)CC2)c2ncccc2c1 [COMPOUND I, 5-Fluoro-8-{4-[4-(6-methoxyquinolin-8-yl)piperazin-1-yl]piperidin-1-yl}quinoline]
2 | P, F | 79.3% | 60.9% |  | Oc1cc(N2CCN(C3CCN(c4ccc(F)c5cccnc45)CC3)CC2)c2ncccc2c1 [Metabolite M21, 8-{4-[1-(5-fluoroquinolin-8-yl)piperidin-4-yl]piperazin-1-yl}quinolin-6-ol trihydrochloride]
